Three molecules from patent US7884115B2, “Methods and compositions for the treatment of pain and other neurological conditions” (Allergan, Inc., priority 2004, dated 2011) can be followed below.

Each structure is given as a SMILES string.

Assay [1] has as its system allodynia induced by sulprostone. The assay can be described thus: Mouse sulprostone model of allodynia. The format is in vivo. Conditions: up to 1 mg/kg, 15 min before sulprostone 300 ng/kg IP, FIG. 3. As to the method:
In this alternative model of chronic pain, allodynia can be induced in mice through intraperitoneal treatment of the animals with 300 ng/kg sulprostone (prostaglandin E2 receptor agonist) in 50% DMSO and in a volume of 5 μl. In this model, the pain response to stroking the flank with a paint brush is scored 8 times over a 35 minute period starting 15 minutes following spinal administration of sulprostone. Minami et al., 57 Pain 217-223 (1994), hereby incorporated by reference herein. Sulprostone treatment alone elicits a score of 12-13 on a 16-point scale.
In either model, the compounds are formulated in d-H2O and given in a volume of 1 ml/kg body weight for intraperitoneal (IP) dosing.
Six mice per group are rendered allodynic by injection of one of the following agents: 300 ng/kg sulprostone in DMSO IP, 100 ng/kg phenylephrine (PE) in dH2O IP, or 100 ng NMDA in DMSO intrathecally (IT). Fifteen minutes before administration of the allodynia-inducing agents, the experimental mice are given 1 mg/kg NB-DNJ. Thirty (30) minutes following administration of NB-DNJ, the allodynic response is monitored as described by brushing the flank of each mouse with a paint brush.
Five to six mice per group are rendered allodynic by injection of 300 ng/kg sulprostone IP. Fifteen minutes before inducement of an allodynic response, experimental mice are given one of the following: 1 mg/kg, 300 μg/kg, and 100 μg/kg NB-DNJ; 1 mg/kg N-butyldeoxymannojirimycin; 1 mg/kg N-5-carboxy-1-deoxynojirimycin; 1 mg/kg N-dodecyldeoxynojirimycin; 1 mg/kg N-ethyl-1-deoxynojirimycin; 1 mg/kg, 300 μg/kg, and 30 μg/kg D-glucaro-delta-lactam; 1 mg/kg 4-O-a-D-glucopyranosylmoranoline; 1 mg/kg nojirimycin bisulfite; 1 mg/kg nojirimycin-1-sulfonic acid; 1 mg/kg N-(n-nonyl)deoxynojirimycin; 1 mg/kg N(7-oxadecyl)deoxynojirimycin; and 1 mg/kg N-(7-oxa-9,9,9-trifluorononyl)deoxynojirimycin. The DMSO vehicle and sulprostone alone are used as controls.
Starting thirty (30) minutes following administration of NB-DNJ, the allodynic response of each mouse was monitored by brushing the flank of the mouse with a paint brush.
Five to six mice per group are rendered allodynic by injection of one of the following: 300 ng/kg sulprostone IP, 100 ng/kg phenylephrine (PE) IP, or 100 ng NMDA intrathecally (IT). Fifteen minutes prior to the induction of allodynia, the mice are given D-glucaro-delta-lactam IP at […], or 1 mg/kg. PE or NMDA-treated mice are given 1 mg/kg D-glucaro-delta-lactam IP.

Assay [2] deals with primary rat brain cortical neurons treated with kainate. Briefly: Kainate-induced excitotoxicity in primary cortical neurons (LDH release). The format is cell-based. Conditions: cortical cell cultures; FIGS. 9A, 9B and 9C. As to the method: (§1) Primary rat brain cortical neurons were cultured as follows. In brief, rat cerebral cortices were removed from brains of the 16 day-old-fetal rats. The neocortices were gently triturated and plated on 24 well plates (300,000 viable cells/cm2) in plating Modified Eagle's Medium (MEM) supplemented with 10% horse serum, 10% fetal calf serum and 2 mM L-glutamine. Cultures were maintained at 37 C in a humidified 5% CO2 atmosphere.
After 4 days' growth (DIV 4), half of the medium was replaced by a medium identical to the plating medium but lacking calf serum. At DIV4, 10 μM 5-fluoro-2-deoxyuridine was included to each well to halt overgrowth of glia. Mixed cultures of neurons and glia were then fed at DIV7 and DIV11 with MEM plus 5% horse serum previously conditioned by growth with cortical astrocytes for 24 h.
Excitotoxicity was induced in these cells by addition of 50 μM kainate or 20 μM N-methyl-D-aspartate plus 10 μM D-serine to each well.
Under the experimental conditions used, i.e. after 6 hours addition of excitotoxic agent, 40% toxicity is generally observed and measured by determination of the amount of lactate dehydrogenase (LDH) released into the medium following membrane degradation. Such assay methods are well-known; a kit for conducting a homogeneous form of the LDH assay format is sold by Promega under the name CytoTox ONE® Homogenous Membrane Integrity Assay. Overall cell injury was assessed microscopically under phase-contrast optics or by measuring amount of LDH released into the bathing medium 24 hr after neurotoxic insults (see, e.g., Koh and Choi, J. NEUROSCI. METHODS 20: 83-90, 1987), hereby incorporated by reference herein.
[…] The final results are normalized optical density (OD) values (treated cells/untreated control cells), where a value of 1 represents 100% neuronal survival and a value of 0.6 represents 60% survival.
(In general: Release of lactate dehydrogenase indicates damage to the cell membrane.)

The test system of assay [3] is allodynia induced by N-methyl-D-aspartate (NMDA). The assay can be described thus: Mouse NMDA model of allodynia. In kind it is in vivo. As to conditions: 3 mg/kg, 15 min before 200 ng NMDA IT, FIG. 2. Here is the method: In variants of this model, allodynia can be induced using 100 ng N-methyl-D-aspartate (NMDA) in DMSO intrathecally, or IP phenylephrine (PE) 100 ng/kg formulated in dH2O. In either model, the compounds are formulated in d-H2O and given in a volume of 1 ml/kg body weight for intraperitoneal (IP) dosing. Six mice per group are rendered allodynic by injection of one of the following agents: 300 ng/kg sulprostone in DMSO IP, 100 ng/kg phenylephrine (PE) in dH2O IP, or 100 ng NMDA in DMSO intrathecally (IT). Fifteen minutes before administration of the allodynia-inducing agents, the experimental mice are given 1 mg/kg NB-DNJ. Thirty (30) minutes following administration of NB-DNJ, the allodynic response is monitored as described by brushing the flank of each mouse with a paint brush. Six mice per group are given one of the following: given 100 μg/kg NB-DNJ, 300 μg/kg NB-DNJ, 1 mg/kg NB-DNJ, or 3 mg/kg 1-deoxynojirimycin. After 15 minutes the mice are rendered allodynic by injection of 200 ng NMDA in DMSO IT. Starting thirty (30) minutes following administration of NB-DNJ, the allodynic response of each mouse is monitored by brushing the flank of the mouse with a paint brush. Five to six mice per group are rendered allodynic by injection of one of the following: 300 ng/kg sulprostone IP, 100 ng/kg phenylephrine (PE) IP, or 100 ng NMDA intrathecally (IT). Fifteen minutes prior to the induction of allodynia, the mice are given D-glucaro-delta-lactam IP at […], or 1 mg/kg. PE or NMDA-treated mice are given 1 mg/kg D-glucaro-delta-lactam IP.

The test system of assay [4] is primary rat brain cortical neurons treated with NMDA plus D-serine. Briefly: NMDA/serine-induced excitotoxicity in primary cortical neurons (LDH release). In kind it is cell-based. Conditions: NMDA/serine-treated cells, 3 h or 16 h preincubation; FIGS. 10A and 10B. Here is the method: as §1
After 4 days' growth (DIV 4), half of the medium was replaced by a medium identical to the plating medium but lacking calf serum. At DIV4, 10 μM 5-fluoro-2-deoxyuridine was included to each well to halt overgrowth of glia. Mixed cultures of neurons and glia were then fed at DIV7 and DIV11 with MEM plus 5% horse serum previously conditioned by growth with cortical astrocytes for 24 h. […]
Under the experimental conditions used, i.e. after 6 hours addition of excitotoxic agent, 40% toxicity is generally observed and measured by determination of the amount of lactate dehydrogenase (LDH) released into the medium following membrane degradation. […] Overall cell injury was assessed microscopically under phase-contrast optics or by measuring amount of LDH released into the bathing medium 24 hr after neurotoxic insults (see, e.g., Koh and Choi, J. NEUROSCI. METHODS 20: 83-90, 1987), hereby incorporated by reference herein. […]

In the next assay the test system is chronic pain. Briefly: Mouse and rat models of chronic pain (summary statement). In kind it is in vivo.

For `CCN1C[C@H](O)[C@@H](O)[C@H](O)[C@H]1CO` [N-ethyldeoxynojirimycin, N-ethyl-1-deoxynojirimycin], the “attenuation of the allodynic response (analgesic activity)” value in assay [1] was “attenuate the allodynic response”.
As to `OC[C@H]1NC[C@H](O)[C@@H](O)[C@@H]1O` [DNJ, 1-deoxynojirimycin], the “protection against kainate induced toxicity” value in assay [2] is on record as “about 50%”. The analgesic activity result in assay [3] is recorded as “not analgesic”. The neuroprotective effect entry in assay [4] is reported as “no neuroprotective effect”.
As for `CCCCN1C[C@H](O)[C@@H](O)[C@@H](O)[C@H]1CO` [NB-DGJ, N-butyldeoxygalactonojirimycin], the “activity in models of chronic pain” value with chronic pain is “not to be active”.
